This note sets out measurements from ChEMBL document CHEMBL1151151, “Anti-AIDS agents, 2: Inhibitory effects of tannins on HIV reverse transcriptase and HIV replication in H9 lymphocyte cells” (J Nat Prod, 1990).

Data set [1] concerns Human immunodeficiency virus 1. As to the kind of experiment: Antiviral activity against HIV1 3B infected in human H9 cells assessed as inhibition of viral replication after 3 days by p24 antigen capture assay. The data set is classed as functional. Also noted: concentration or dose not given beside the values.
The subject of data set [2] is Human immunodeficiency virus 1. Briefly: Antiviral activity against HIV1 3B infected in human H9 cells assessed as inhibition of viral replication at 18 uM treated after viral infection by p24 antigen capture assay. Type of data set: functional, organism-based.
The subject of data set [3] is Human immunodeficiency virus 1. As to the kind of experiment: Antiviral activity against HIV1 3B infected in human H9 cells assessed as inhibition of viral replication at 21 uM treated after viral infection by p24 antigen capture assay. Type of data set: functional, organism-based.
In data set [4] the test system is Human immunodeficiency virus 1. As to the kind of experiment: Antiviral activity against HIV1 3B infected in human H9 cells assessed as inhibition of viral replication at 18 uM treated during viral infection step by p24 antigen capture assay. The data set is classed as functional, organism-based.
For data set [5], the system named is Human immunodeficiency virus 1. As to the kind of experiment: Antiviral activity against HIV1 3B infected in human H9 cells assessed as inhibition of viral replication at 18 uM pretreated before viral infection by p24 antigen capture assay. The data set is classed as functional, organism-based.
Data set [6] deals with Human immunodeficiency virus 1. As to the kind of experiment: Antiviral activity against HIV1 3B infected in human H9 cells assessed as inhibition of viral replication at 21 uM pretreated before viral infection by p24 antigen capture assay. The data set is classed as functional, organism-based.
Data set [7] relates to Human immunodeficiency virus 1. Briefly: Antiviral activity against HIV1 3B infected in human H9 cells assessed as inhibition of viral replication at 21 uM treated during viral infection step by p24 antigen capture assay. The data set is classed as functional, organism-based.
Data set [8] addresses Human immunodeficiency virus type 1 reverse transcriptase (Human immunodeficiency virus 1) (UniProt Q72547). As to the kind of experiment: Inhibition of HIV reverse transcriptase.
For data set [9], the system named is Human immunodeficiency virus 1. Briefly: Antiviral activity against HIV1 3B infected in human H9 cells assessed as inhibition of viral replication at 10 uM pretreated before viral infection by p24 antigen capture assay. The data set is classed as functional, organism-based.
The subject of data set [10] is Human immunodeficiency virus 1. As to the kind of experiment: Antiviral activity against HIV1 3B infected in human H9 cells assessed as inhibition of viral replication at 10 uM treated during viral infection step by p24 antigen capture assay. The data set is classed as functional, organism-based.
Data set [11] has as its system Human immunodeficiency virus 1. As to the kind of experiment: Antiviral activity against HIV1 3B infected in human H9 cells assessed as inhibition of viral replication at 9.2 uM pretreated before viral infection by p24 antigen capture assay. Type of data set: functional, organism-based.
Data set [12] deals with Human immunodeficiency virus type 1 reverse transcriptase (Human immunodeficiency virus 1) (UniProt Q72547). As to the kind of experiment: Inhibition of polymerase activity of HIV reverse transcriptase assessed as residual enzyme activity at 46 uM in presence of 75 ug/ml activated dNA and 5 uM dTTP.
Data set [13] has as its system Human immunodeficiency virus 1. Briefly: Antiviral activity against HIV1 3B infected in human H9 cells assessed as inhibition of viral replication at 9.2 uM treated during viral infection step by p24 antigen capture assay. Type of data set: functional, organism-based.
In data set [14] the target is Human immunodeficiency virus type 1 reverse transcriptase (Human immunodeficiency virus 1) (UniProt Q72547). Briefly: Inhibition of polymerase activity of HIV reverse transcriptase assessed as residual enzyme activity at 46 uM in presence of 375 ug/ml activated dNA and 5 uM dTTP.
For data set [15] the target is unchanged. Briefly: Inhibition of polymerase activity of HIV reverse transcriptase assessed as residual enzyme activity at 46 uM in presence of 75 ug/ml activated dNA and 25 uM dTTP.
Data set [16] shares this target. As to the kind of experiment: Inhibition of polymerase activity of HIV reverse transcriptase assessed as residual enzyme activity at 64 uM in presence of 75 ug/ml activated dNA and 25 uM dTTP.
Data set [17] has the same target. Briefly: Inhibition of HIV reverse transcriptase at 12.5 uM. Conditions: TDE = time-dependent effect.
Data set [18] can be described thus: Growth inhibition of human H9 cells at 30 uM. Type of data set: cell-based. Conditions: read-out: GI.
In data set [19] the test system is Human immunodeficiency virus 1. As to the kind of experiment: Antiviral activity against HIV1 3B infected in human H9 cells assessed as inhibition of viral replication at 13 uM treated during viral infection step by p24 antigen capture assay. Type of data set: functional, organism-based.
Data set [20] relates to Human immunodeficiency virus 1. Briefly: Antiviral activity against HIV1 3B infected in human H9 cells assessed as inhibition of viral replication at 13 uM pretreated before viral infection by p24 antigen capture assay. The data set is classed as functional, organism-based.
Data set [21] has as its target Human immunodeficiency virus type 1 reverse transcriptase (Human immunodeficiency virus 1) (UniProt Q72547). As to the kind of experiment: Inhibition of polymerase activity of HIV reverse transcriptase assessed as residual enzyme activity at 64 uM in presence of 75 ug/ml activated dNA and 5 uM dTTP.
Data set [22] shares this target. Briefly: Inhibition of polymerase activity of HIV reverse transcriptase assessed as residual enzyme activity at 64 uM in presence of 375 ug/ml activated dNA and 5 uM dTTP.

Activity calls are given as the source filed them. The rule behind the calls is not given here.

In the case of `O=C(O[C@@H]1[C@H](O)C[C@@](OC(=O)c2cc(O)c(O)c(O)c2)(C(=O)O)C[C@H]1OC(=O)c1cc(O)c(O)c(O)c1)c1cc(O)c(O)c(O)c1`, the “inhibition (INH)” value in data set [1] is more than 50%. Also, the outcome in data set [2], in [3], in data set [4] and in data set [5] was Active.

For `O=C(O)C1=C[C@@H](OC(=O)c2cc(O)c(O)c(O)c2)[C@@H](OC(=O)c2cc(O)c(O)c(O)c2)[C@H](OC(=O)c2cc(O)c(O)c(O)c2)C1`, the “inhibition (INH)” value in [1] is reported as more than 50%.

With `O=C(O)C1=C[C@@H](OC(=O)c2cc(O)c(O)c(O)c2)[C@@H](O)[C@H](OC(=O)c2cc(O)c(O)c(O)c2)C1`, the result in data set [6], in [2], in data set [3] and in [7] was Active. Also, the “inhibition (INH)” value in data set [1] is listed as more than 50%.

In turn, `O=C(O[C@@H]1O[C@@H]2COC(=O)c3cc(O)c(O)c(O)c3-c3c(cc(O)c(O)c3O)C(=O)O[C@H]2[C@@H]2OC(=O)c3cc(O)c(O)c(O)c3-c3c(cc(O)c(O)c3O)C(=O)O[C@@H]12)c1cc(O)c(O)c(Oc2c(O)c(O)c(O)c3c2C(=O)O[C@H]2[C@@H]4OC(=O)c5cc(O)c(O)c(O)c5-c5c(cc(O)c(O)c5O)C(=O)O[C@H]4[C@@H](OC(=O)c4cc(O)c(O)c(Oc5c(O)c(O)c(O)c6c5C(=O)O[C@H]5[C@@H]7OC(=O)c8cc(O)c(O)c(O)c8-c8c(cc(O)c(O)c8O)C(=O)O[C@H]7[C@H](OC(=O)c7cc(O)c(O)c(Oc8c(O)c(O)c(O)c9c8C(=O)O[C@H]8[C@@H]%10OC(=O)c%11cc(O)c(O)c(O)c%11-c%11c(cc(O)c(O)c%11O)C(=O)O[C@H]%10[C@@H](OC(=O)c%10cc(O)c(O)c(O)c%10)O[C@@H]8COC(=O)c8cc(O)c(O)c(O)c8-9)c7)O[C@@H]5COC(=O)c5cc(O)c(O)c(O)c5-6)c4)O[C@@H]2COC(=O)c2cc(O)c(O)c(O)c2-3)c1` came in with an ID50 in data set [8] of 20 µM.

Take `O=C(O)C[C@@H]1C(=O)O[C@H]2[C@@H]3OC(=O)c4cc(O)c(O)c(O)c4-c4c(cc(O)c(O)c4O)C(=O)OC[C@H]2O[C@@H](OC(=O)c2cc(O)c(O)c(O)c2)[C@@H]3OC(=O)c2cc(O)c(O)c3c2[C@H]1[C@H](O)C(=O)O3` [CHEBULAGIC ACID]: the outcome in data set [9] was inactive. Further, the “inhibition (INH)” value in data set [1] is given as more than 50%. Also, the result in data set [2], in data set [3] and in data set [10] was Active.

As to `O=C(O)C[C@H]1C(=O)O[C@H]2[C@H](OC(=O)c3cc(O)c(O)c(O)c3)[C@@H](OC(=O)c3cc(O)c(O)c4c3[C@H]1[C@H](O)C(=O)O4)[C@H](OC(=O)c1cc(O)c(O)c(O)c1)O[C@@H]2COC(=O)c1cc(O)c(O)c(O)c1` [CHEBULINIC ACID], the result in data set [9], in [2], in data set [3] and in data set [10] was Active. Besides, the “inhibition (INH)” value in data set [1] is reported as more than 50%.

The compound `O=C1O[C@H]([C@@H]2OC(=O)c3cc(O)c(O)c(O)c3-c3c(O)c(O)c4oc(=O)c5c(c(O)c(O)c6oc(=O)c3c4c65)-c3c(cc(O)c(O)c3O)C(=O)OC[C@H]2O)[C@@H]2OC(=O)c3c(c(O)c(O)c(O)c3[C@H]2O)-c2c1cc(O)c(O)c2O` [PUNICACORTEIN C] registered an ID50 in [8] of 5 µM. Also, the outcome in data set [11], in [13], in [2] and in [3] was Active. Also, the results for the Activity in [12], in data set [14] and in [15] were 21.5%, 46.2% and 37.6%, respectively. Further, the “inhibition (INH)” value in data set [1] was more than 50%.

For `O=C1O[C@@H]2[C@@H](OC(=O)c3cc(O)c(O)c(O)c3-c3c1cc(O)c(O)c3O)[C@H](O)O[C@@H]1COC(=O)c3cc(O)c(O)c(O)c3-c3c(O)c(O)c4oc(=O)c5c(c(O)c(O)c6oc(=O)c3c4c65)-c3c(cc(O)c(O)c3O)C(=O)O[C@@H]21` [PUNICALAGIN], the outcome in data set [11], in data set [13], in data set [2] and in [3] was Active. The “inhibition (INH)” value in data set [1] is given as more than 50%.

In the case of `O=C1OC[C@H]2O[C@@H](O)[C@H](O)[C@@H](O)[C@@H]2OC(=O)c2cc(O)c(O)c(O)c2-c2c(O)c(O)c3oc(=O)c4c(c(O)c(O)c5oc(=O)c2c3c54)-c2c1cc(O)c(O)c2O` [PUNICALIN], the Activity in data set [16] is 34.4%; in [8], “Dose-dependent effect”; in [17], “tde”; in data set [21] it was 11.4%; in data set [22], 45.3%. The compound also yielded an ID50 in data set [8] of 8 µM. Also, in data set [1], the “inhibition (INH)” value was more than 50%. Moreover, the inhibition at 30 µM in data set [18] was 15%. Also, the outcome in data set [2], in data set [3] and in [19] was Active. Besides, in data set [20], the result was inactive.
